In ChEMBL document CHEMBL1201862, “PubChem BioAssay data set” (2004):
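Assay format: 96-well plates, 48-hour exposure. GI50 is the concentration that inhibits growth by half.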 Calls of active or inactive are those of the source. No stated cut-off is given here; in the data, active = GI50 up to about 1.1 µM and inactive = higher.

Columns and labels:
Assay in all cases: NCI-60 cell line screen, 48 h
786-0 = test system: 786-0
NCI-H460 = test system: NCI-H460
NCI-H226 = test system: NCI-H226
SK-OV-3 = test system: SK-OV-3
HCT-116 = test system: HCT-116
UO-31 = test system: UO-31
A498 = test system: A498
SK-MEL-2 = test system: SK-MEL-2
RPMI-8226 = test system: RPMI-8226
COLO 205 = test system: COLO 205
M14 = test system: M14
HCT-15 = test system: HCT-15
MDA-N = test system: MDA-N
MCF7 = test system: MCF7
MDA-MB-231 = test system: MDA-MB-231
A549 = test system: A549
CAKI-1 = test system: CAKI-1
SK-MEL-5 = test system: SK-MEL-5
KM12 = test system: KM12
HOP-92 = test system: HOP-92
BT-549 = test system: BT-549
NCI-H23 = test system: NCI-H23
UACC-257 = test system: UACC-257
SF-295 = test system: SF-295
TK-10 = test system: TK-10
SK-MEL-28 = test system: SK-MEL-28
OVCAR-8 = test system: OVCAR-8
MDA-MB-435 = test system: MDA-MB-435
PC-3 = test system: PC-3
IGROV-1 = test system: IGROV-1
NCI-H522 = test system: NCI-H522
K562 = test system: K562
OVCAR-3 = test system: OVCAR-3
CCRF-CEM = test system: CCRF-CEM
SR = test system: SR
HOP-62 = test system: HOP-62
SN12C = test system: SN12C
NCI/ADR-RES = test system: NCI/ADR-RES
SNB-75 = test system: SNB-75
OVCAR-4 = test system: OVCAR-4
Malme-3M = test system: Malme-3M
ACHN = test system: ACHN
MOLT-4 = test system: MOLT-4
UACC-62 = test system: UACC-62
HCC 2998 = test system: HCC 2998
SW-620 = test system: SW-620
HT-29 = test system: HT-29
SF-268 = test system: SF-268
HL-60 = test system: HL-60
U-251 = test system: U-251
T47D = test system: T47D
OVCAR-5 = test system: OVCAR-5
RXF 393 = test system: RXF 393
SNB-19 = test system: SNB-19
Hs-578T = test system: Hs-578T
EKVX = test system: EKVX
LOX IMVI = test system: LOX IMVI

SMILES: O=C(Nc1ccccn1)c1cc2c(cc1Cl)Sc1nccn1S2(=O)=O
- GI50 (786-0): 35.1 µM (inactive)
- GI50 (NCI-H460): 30.1 µM (inactive)
- GI50 (NCI-H226): 24.2 µM (inactive)
- GI50 (SK-OV-3): 38.1 µM (inactive)
- GI50 (HCT-116): 28.4 µM (inactive)
- GI50 (UO-31): 27 µM (inactive)
- GI50 (A498): 45 µM (inactive)
- GI50 (SK-MEL-2): 20 µM (inactive)
- GI50 (RPMI-8226): 29.7 µM (inactive)
- GI50 (COLO 205): 33.5 µM (inactive)
- GI50 (M14): 48.9 µM (inactive)
- GI50 (HCT-15): 30.7 µM
- GI50 (MDA-N): 36.3 µM (inactive)
- GI50 (MCF7): 41.8 µM (inactive)
- GI50 (MDA-MB-231): 21.1 µM (inactive)
- GI50 (A549): 34.8 µM (inactive)
- GI50 (CAKI-1): 36.5 µM (inactive)
- GI50 (SK-MEL-5): 25.6 µM (inactive)
- GI50 (KM12): 33.6 µM (inactive)
- GI50 (HOP-92): 51.9 µM (inactive)
- GI50 (BT-549): 71.3 µM (inactive)
- GI50 (NCI-H23): 27.4 µM (inactive)
- GI50 (UACC-257): 33.7 µM (inactive)
- GI50 (SF-295): 36.6 µM (inactive)
- GI50 (TK-10): 33.4 µM (inactive)
- GI50 (SK-MEL-28): 44.3 µM (inactive)
- GI50 (OVCAR-8): 37.8 µM (inactive)
- GI50 (MDA-MB-435): 27.9 µM (inactive)
- GI50 (PC-3): 44.8 µM (inactive)
- GI50 (IGROV-1): 23.8 µM (inactive)
- GI50 (NCI-H522): 39.1 µM (inactive)
- GI50 (K562): 32.3 µM (inactive)
- GI50 (OVCAR-3): 26.7 µM (inactive)
- GI50 (CCRF-CEM): 22.5 µM (inactive)
- GI50 (SR): 29.4 µM (inactive)
- GI50 (HOP-62): 39.6 µM (inactive)
- GI50 (SN12C): 36.6 µM (inactive)
- GI50 (NCI/ADR-RES): 31 µM (inactive)
- GI50 (SNB-75): 33.2 µM (inactive)
- GI50 (OVCAR-4): 33 µM (inactive)
- GI50 (Malme-3M): 63 µM (inactive)
- GI50 (ACHN): 32.1 µM (inactive)
- GI50 (MOLT-4): 31.3 µM (inactive)
- GI50 (UACC-62): 42 µM (inactive)
- GI50 (HCC 2998): 16.1 µM (inactive)
- GI50 (SW-620): 45 µM (inactive)
- GI50 (HT-29): 31.1 µM (inactive)
- GI50 (SF-268): 37.8 µM (inactive)
- GI50 (HL-60): 23.9 µM (inactive)
- GI50 (U-251): 44.4 µM (inactive)
- GI50 (T47D): 20.7 µM (inactive)
- GI50 (OVCAR-5): > 100 µM (inactive)
- GI50 (RXF 393): 25.5 µM (inactive)
- GI50 (SNB-19): 56.1 µM (inactive)
- GI50 (Hs-578T): > 100 µM (inactive)
- GI50 (EKVX): 38.2 µM (inactive)
- GI50 (LOX IMVI): 26.8 µM (inactive)

SMILES: Nc1ccc(S(=O)(=O)c2ccc(NCN3C(=O)NC(=O)C(=O)C3=O)cc2)cc1 [ALLANTODAPSONE]
- GI50 (786-0): > 100 µM (inactive)
- GI50 (NCI-H460): > 100 µM (inactive)
- GI50 (NCI-H226): > 100 µM (inactive)
- GI50 (HCT-116): > 100 µM (inactive)
- GI50 (UO-31): > 100 µM (inactive)
- GI50 (A498): > 100 µM (inactive)
- GI50 (SK-MEL-2): > 100 µM (inactive)
- GI50 (M14): > 100 µM (inactive)
- GI50 (HCT-15): > 100 µM
- GI50 (MDA-N): > 100 µM (inactive)
- GI50 (MDA-MB-231): > 100 µM (inactive)
- GI50 (A549): > 100 µM (inactive)
- GI50 (CAKI-1): > 100 µM (inactive)
- GI50 (SK-MEL-5): > 100 µM (inactive)
- GI50 (KM12): > 100 µM (inactive)
- GI50 (HOP-92): > 100 µM (inactive)
- GI50 (BT-549): > 100 µM (inactive)
- GI50 (NCI-H23): > 100 µM (inactive)
- GI50 (UACC-257): > 100 µM (inactive)
- GI50 (SF-295): > 100 µM (inactive)
- GI50 (TK-10): > 100 µM (inactive)
- GI50 (SK-MEL-28): > 100 µM (inactive)
- GI50 (OVCAR-8): > 100 µM (inactive)
- GI50 (MDA-MB-435): > 100 µM (inactive)
- GI50 (PC-3): > 100 µM (inactive)
- GI50 (IGROV-1): > 100 µM (inactive)
- GI50 (NCI-H522): > 100 µM (inactive)
- GI50 (K562): > 100 µM (inactive)
- GI50 (OVCAR-3): > 100 µM (inactive)
- GI50 (CCRF-CEM): 95.7 µM (inactive)
- GI50 (SR): > 100 µM (inactive)
- GI50 (HOP-62): > 100 µM (inactive)
- GI50 (SN12C): > 100 µM (inactive)
- GI50 (NCI/ADR-RES): > 100 µM (inactive)
- GI50 (OVCAR-4): > 100 µM (inactive)
- GI50 (Malme-3M): > 100 µM (inactive)
- GI50 (ACHN): > 100 µM (inactive)
- GI50 (MOLT-4): > 100 µM (inactive)
- GI50 (UACC-62): > 100 µM (inactive)
- GI50 (HCC 2998): > 100 µM (inactive)
- GI50 (SW-620): > 100 µM (inactive)
- GI50 (HT-29): > 100 µM (inactive)
- GI50 (SF-268): > 100 µM (inactive)
- GI50 (U-251): > 100 µM (inactive)
- GI50 (T47D): > 100 µM (inactive)
- GI50 (OVCAR-5): > 100 µM (inactive)
- GI50 (RXF 393): > 100 µM (inactive)
- GI50 (SNB-19): > 100 µM (inactive)
- GI50 (Hs-578T): > 100 µM (inactive)
- GI50 (EKVX): > 100 µM (inactive)
- GI50 (LOX IMVI): > 100 µM (inactive)
